Assay results reported in patent publication US20100105655A1, “NOVEL COMPOUNDS 515” (ASTRAZENECA AB, priority 2008, published 2010).

Molecular target: T1, IGFR kinase (Homo sapiens, UniProt P08069)
T1 construct: purchased Millipore
Experiment: Enzyme assay (c), IGFR kinase, Caliper LabChip
Type: biochemical
Conditions: 30 nM IGFR kinase, 6 uM ATP, 3 uM peptide mix; read-out: IGFR IC50

T1 sequence (P08069 31-1367): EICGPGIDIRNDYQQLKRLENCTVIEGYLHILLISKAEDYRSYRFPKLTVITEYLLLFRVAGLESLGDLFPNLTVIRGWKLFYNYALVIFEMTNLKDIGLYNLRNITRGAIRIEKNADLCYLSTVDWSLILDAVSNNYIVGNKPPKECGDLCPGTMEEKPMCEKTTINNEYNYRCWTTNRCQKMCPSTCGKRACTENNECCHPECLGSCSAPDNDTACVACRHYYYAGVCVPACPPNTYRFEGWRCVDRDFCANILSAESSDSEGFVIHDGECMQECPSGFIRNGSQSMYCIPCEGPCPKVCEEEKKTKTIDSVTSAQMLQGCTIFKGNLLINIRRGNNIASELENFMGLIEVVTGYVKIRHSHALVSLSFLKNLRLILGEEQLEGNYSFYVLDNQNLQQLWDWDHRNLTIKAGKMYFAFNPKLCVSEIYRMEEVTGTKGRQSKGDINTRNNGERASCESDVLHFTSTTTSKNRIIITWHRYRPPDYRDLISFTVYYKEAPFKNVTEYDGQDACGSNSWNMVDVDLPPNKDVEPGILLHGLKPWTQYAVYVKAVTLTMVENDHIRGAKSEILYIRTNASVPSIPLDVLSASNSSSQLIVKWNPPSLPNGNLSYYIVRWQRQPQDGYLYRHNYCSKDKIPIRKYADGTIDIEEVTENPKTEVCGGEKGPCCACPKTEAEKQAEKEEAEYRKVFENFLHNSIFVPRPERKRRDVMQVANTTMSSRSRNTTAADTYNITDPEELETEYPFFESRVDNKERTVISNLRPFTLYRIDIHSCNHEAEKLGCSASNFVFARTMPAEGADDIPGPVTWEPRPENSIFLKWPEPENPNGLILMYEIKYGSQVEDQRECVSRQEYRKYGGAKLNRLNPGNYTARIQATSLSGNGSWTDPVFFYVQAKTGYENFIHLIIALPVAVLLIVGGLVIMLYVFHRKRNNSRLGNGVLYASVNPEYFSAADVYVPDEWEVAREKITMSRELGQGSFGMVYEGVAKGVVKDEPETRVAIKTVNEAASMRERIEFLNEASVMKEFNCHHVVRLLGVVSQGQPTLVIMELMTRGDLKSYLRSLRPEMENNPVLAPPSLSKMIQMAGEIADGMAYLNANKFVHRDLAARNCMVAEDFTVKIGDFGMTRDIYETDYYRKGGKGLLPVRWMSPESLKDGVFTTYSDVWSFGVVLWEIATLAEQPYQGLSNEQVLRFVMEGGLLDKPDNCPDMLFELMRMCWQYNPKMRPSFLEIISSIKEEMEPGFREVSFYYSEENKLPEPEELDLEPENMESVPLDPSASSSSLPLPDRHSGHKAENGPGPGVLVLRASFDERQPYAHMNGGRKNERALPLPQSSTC

Row | IC50 | SMILES
1 | 5 nM | COc1cc(N2CCN(C(=O)C3CCCN3)CC2)ccc1Nc1ncc(Cl)c(-c2cnc3ccccn23)n1 (centres unmarked) [Example 24.3, [4-[4-[(5-chloro-4-imidazo[1,2-a]pyridin-3-ylpyrimidin-2-yl)amino]-3-methoxyphenyl]piperazin-1-yl]-pyrrolidin-2-yl methanone]
2 | 6 nM | COc1cc(N2CCN(C(=O)[C@@H](N)C(C)C)CC2)ccc1Nc1ncc(Cl)c(-c2cnc3ccccn23)n1 [Example 24.6, (2S)-2-amino-1-[4-[4-[(5-chloro-4-imidazo[1,2-a]pyridin-3-yl-pyrimidin-2-yl)amino]-3-methoxy-phenyl]piperazin-1-yl]-3-methyl-butan-1-one]
3 | 5 nM | COc1cc(N2CCN(C(=O)[C@@H](N)CO)CC2)ccc1Nc1ncc(Cl)c(-c2cnc3ccccn23)n1 [Example 24.7, (2S)-2-amino-1-[4-[4-[(5-chloro-4-imidazo[1,2-a]pyridin-3-yl-pyrimidin-2-yl)amino]-3-methoxy-phenyl]piperazin-1-yl]-3-hydroxy-propan-1-one]
4 | 7 nM | COc1cc(N2CCN(C(=O)[C@@H](N)CC(N)=O)CC2)ccc1Nc1ncc(Cl)c(-c2cnc3ccccn23)n1 [Example 24.8, (3S)-3-amino-4-[4-[4-[(5-chloro-4-imidazo[1,2-a]pyridin-3-yl-pyrimidin-2-yl)amino]-3-methoxy-phenyl]piperazin-1-yl]-4-oxo-butanamide]
5 | 6 nM | COc1cc(N2CCN(C(=O)[C@@H]3C[C@@H](O)CN3)CC2)ccc1Nc1ncc(Cl)c(-c2cnc3ccccn23)n1 [Example 24.9, [4-[4-[(5-chloro-4-imidazo[1,2-a]pyridin-3-yl-pyrimidin-2-yl)amino]-3-methoxy-phenyl]piperazin-1-yl]-[(2S,4R)-4-hydroxypyrrolidin-2-yl]methanone]
6 | 15 nM | CCNCC(=O)N1CCN(c2ccc(Nc3ncc(Cl)c(-c4cnc5ccccn45)n3)c(OC)c2)CC1 [Example 24.11, 1-[4-[4-[(5-chloro-4-imidazo[1,2-a]pyridin-3-yl-pyrimidin-2-yl)amino]-3-methoxy-phenyl]piperazin-1-yl]-2-ethylamino-ethanone]
7 | 6 nM | COc1cc(N2CCN(C(=O)[C@H](N)CO)CC2)ccc1Nc1ncc(Cl)c(-c2cnc3ccccn23)n1 [Example 24.12, (2R)-2-amino-1-[4-[4-[(5-chloro-4-imidazo[1,2-a]pyridin-3-yl-pyrimidin-2-yl)amino]-3-methoxy-phenyl]piperazin-1-yl]-3-hydroxy-propan-1-one]
8 | 5 nM | COc1cc(N2CCN(C(=O)[C@@H](N)CCO)CC2)ccc1Nc1ncc(Cl)c(-c2cnc3ccccn23)n1 [Example 24.13, (2S)-2-amino-1-[4-[4-[(5-chloro-4-imidazo[1,2-a]pynidin-3-yl-pyrimidin-2-yl)amino]-3-methoxy-phenyl]piperazin-1-yl]-4-hydroxy-butan-1-one]
9 | 9 nM | COc1cc(N2CCN(C(=O)C3CCC(=O)N3)CC2)ccc1Nc1ncc(Cl)c(-c2cnc3ccccn23)n1 (centres unmarked) [Example 25.1, 5-[4-[4-[(5-chloro-4-imidazo[1,2-a]pyridin-3-yl-pyrimidin-2-yl)amino]-3-methoxy-phenyl]piperazine-1-carbonyl]pyrrolidin-2-one]
10 | 8 nM | COc1cc(N2CCN(C(=O)[C@@H]3CCC(=O)N3)CC2)ccc1Nc1ncc(Cl)c(-c2cnc3ccccn23)n1 [Example 25.1A, (5S)-5-[4-[4-[(5-chloro-4-imidazo[1,2-a]pyridin-3-yl-pyrimidin-2-yl)amino]-3-methoxy-phenyl]piperazine-1-carbonyl]pyrrolidin-2-one]
11 | 13 nM | COc1cc(N2CCN(C(=O)CNC(C)=O)CC2)ccc1Nc1ncc(Cl)c(-c2cnc3ccccn23)n1 [Example 25.2, N-[2-[4-[4-[(5-chloro-4-imidazo[1,2-a]pyridin-3-yl-pyrimidin-2-yl)amino]-3-methoxy-phenyl]piperazin-1-yl]-2-oxo-ethyl]acetamide]
12 | 14 nM | COc1cc(N2CCN(C(=O)[C@H](C)OC)CC2)ccc1Nc1ncc(Cl)c(-c2cnc3ccccn23)n1 [Example 25.3, (2S)-1-[4-[4-[(5-chloro-4-imidazo[1,2-a]pyridin-3-yl-pyrimidin-2-yl)amino]-3-methoxy-phenyl]piperazin-1-yl]-2-methoxy-propan-1-one]
13 | 9 nM | COc1cc(N2CCN(C(=O)[C@@H](C)OC)CC2)ccc1Nc1ncc(Cl)c(-c2cnc3ccccn23)n1 [Example 25.5, (2R)-1-[4-[4-[(5-chloro-4-imidazo[1,2-a]pyridin-3-yl-pyrimidin-2-yl)amino]-3-methoxy-phenyl]piperazin-1-yl]-2-methoxy-propan-1-one]
14 | 11 nM | COc1cc(N2CCN(C(=O)C(C)(C)O)CC2)ccc1Nc1ncc(Cl)c(-c2cnc3ccccn23)n1 [Example 25.6, 1-[4-[4-[(5-chloro-4-imidazo[1,2-a]pyridin-3-yl-pyrimidin-2-yl)amino]-3-methoxy-phenyl]piperazin-1-yl]-2-hydroxy-2-methyl-propan-1-one]
15 | 31 nM | COc1cc(OC2CN(C(=O)[C@H](C)O)C2)ccc1Nc1ncc(Cl)c(-c2cnc3ccccn23)n1 [Example 27.1, (2S)-1-[3-[4-[(5-chloro-4-imidazo[1,2-a]pyridin-3-yl-pyrimidin-2-yl)amino]-3-methoxy-phenoxy]azetidin-1-yl]-2-hydroxy-propan-1-one]
16 | 36 nM | COc1cc(OC2CN(C(=O)[C@H](C)OC)C2)ccc1Nc1ncc(Cl)c(-c2cnc3ccccn23)n1 [Example 27.2, (2S)-1-[3-[4-[(5-chloro-4-imidazo[1,2-a]pyridin-3-yl-pyrimidin-2-yl)amino]-3-methoxy-phenoxy]azetidin-1-yl]-2-methoxy-propan-1-one]
17 | 22 nM | COc1cc(OC2CN(C(=O)CO)C2)ccc1Nc1ncc(Cl)c(-c2cnc3ccccn23)n1 [Example 27.3, 1-[3-[4-[(5-chloro-4-imidazo[1,2-a]pyridin-3-yl-pyrimidin-2-yl)amino]-3-methoxy-phenoxy]azetidin-1-yl]-2-hydroxy-ethanone]
18 | 24 nM | COc1cc(OC2CN(C(=O)[C@@H](C)OC)C2)ccc1Nc1ncc(Cl)c(-c2cnc3ccccn23)n1 [Example 27.4, (2R)-1-[3-[4-[(5-chloro-4-imidazo[1,2-a]pyridin-3-yl-pyrimidin-2-yl)amino]-3-methoxy-phenoxy]azetidin-1-yl]-2-methoxy-propan-1-one]
19 | 23 nM | COc1cc(OC2CN(C(=O)C3(O)CC3)C2)ccc1Nc1ncc(Cl)c(-c2cnc3ccccn23)n1 [Example 27.5, [3-[4-[(5-chloro-4-imidazo[1,2-a]pyridin-3-yl-pyrimidin-2-yl)amino]-3-methoxy-phenoxy]azetidin-1-yl]-(1-hydroxycyclopropyl)methanone]
20 | 14 nM | COc1cc(OC2CN(C(=O)[C@@H](C)O)C2)ccc1Nc1ncc(Cl)c(-c2cnc3ccccn23)n1 [Example 27.6, (2R)-1-[3-[4-[(5-chloro-4-imidazo[1,2-a]pyridin-3-yl-pyrimidin-2-yl)amino]-3-methoxy-phenoxy]azetidin-1-yl]-2-hydroxy-propan-1-one]
21 | 5 nM | COc1cc(C2CCN(C(=O)[C@@H](C)OC)CC2)ccc1Nc1ncc(Cl)c(-c2cnc3ccccn23)n1 [Example 28.1, (2R)-1-[4-[4-[(5-chloro-4-imidazo[1,2-a]pyridin-3-yl-pyrimidin-2-yl)amino]-3-methoxy-phenyl]-1-piperidyl]-2-methoxy-propan-1-one]
22 | 6 nM | COc1cc(C2CCN(C(=O)[C@@H](C)O)CC2)ccc1Nc1ncc(Cl)c(-c2cnc3ccccn23)n1 [Example 28.2, (2R)-1-[4-[4-[(5-chloro-4-imidazo[1,2-a]pyridin-3-yl-pyrimidin-2-yl)amino]-3-methoxy-phenyl]-1-piperidyl]-2-hydroxy-propan-1-one]
23 | 6 nM | COc1cc(C2CCN(C(=O)[C@H](C)OC)CC2)ccc1Nc1ncc(Cl)c(-c2cnc3ccccn23)n1 [Example 28.3, (2S)-1-[4-[4-[(5-chloro-4-imidazo[1,2-a]pyridin-3-yl-pyrimidin-2-yl)amino]-3-methoxy-phenyl]-1-piperidyl]-2-methoxy-propan-1-one]
24 | 14 nM | COc1cc(C2CCN(C(=O)[C@H](C)O)CC2)ccc1Nc1ncc(Cl)c(-c2cnc3ccccn23)n1 [Example 28.4, (2S)-1-[4-[4-[(5-chloro-4-imidazo[1,2-a]pyridin-3-yl-pyrimidin-2-yl)amino]-3-methoxy-phenyl]-1-piperidyl]-2-hydroxy-propan-1-one]
25 | 4 nM | COc1cc(C2CCN(C(=O)CO)CC2)ccc1Nc1ncc(Cl)c(-c2cnc3ccccn23)n1 [Example 28.5, 1-[4-[4-[(5-chloro-4-imidazo[1,2-a]pyridin-3-yl-pyrimidin-2-yl)amino]-3-methoxy-phenyl]-1-piperidyl]-2-hydroxy-ethanone]
26 | 17 nM | COc1cc(C(=O)N2C[C@@H]3C[C@H]2CN3)ccc1Nc1ncc(Cl)c(-c2cnc3ccccn23)n1 [Example 29, [4-[(5-chloro-4-imidazo[1,2-a]pyridin-3-yl-pyrimidin-2-yl)amino]-3-methoxy-phenyl]-[(1S,4S)-2,5-diazabicyclo[2.2.1]heptan-5-yl]methanone]
27 | 33 nM | COc1cc(C(=O)N2CCNCC2)ccc1Nc1ncc(Cl)c(-c2cnc3ccccn23)n1 [Example 30, [4-[(5-chloro-4-imidazo[1,2-a]pyridin-3-yl-pyrimidin-2-yl)amino]-3-methoxy-phenyl]-piperazin-1-yl-methanone]
28 | 21 nM | COc1cc(C(=O)N2C[C@@H]3C[C@H]2CN3C)ccc1Nc1ncc(Cl)c(-c2cnc3ccccn23)n1 [Example 31, [4-[(5-chloro-4-imidazo[1,2-a]pyridin-3-yl-pyrimidin-2-yl)amino]-3-methoxy-phenyl]-[(1S,4S)-5-methyl-2,5-diazabicyclo[2.2.1]heptan-2-yl]methanone]
29 | 19 nM | COc1cc(C(=O)N2CCN(CCO)CC2)ccc1Nc1ncc(Cl)c(-c2cnc3ccccn23)n1 [Example 32, [4-[(5-chloro-4-imidazo[1,2-a]pyridin-3-yl-pyrimidin-2-yl)amino]-3-methoxy-phenyl]-[4-(2-hydroxyethyl)piperazin-1-yl]methanone]
